# Measured values from patent US8507439B2, “Neuroprotective and neurorestorative method and compositions” (priority 2005, dated 2013).
# Residues, ends and D or L forms follow the SMILES beside them. No end group written: not given here. ξ: configuration not given here. *: point of attachment. Lip = lipoic acid (N-terminal), O=C(CCCC[C@@H]1CCSS1)*; Lipoyl(6ξ) = O=C(CCCCC1CCSS1)*
# What was measured:
# N27 dopaminergic cells = experiment: Survival of N27 dopaminergic cells in the presence of 300 μM MPP+ neurotoxic agent; format: cell-based, rat
# [1] = system: noradrenergic neurons in the striatum; experiment: Survival of noradrenergic neurons in the MPTP mouse model for Parkinson's disease; format: in vivo
# Text: Tests were done in the MPTP mouse model for Parkinson's disease.
# [2] = system: SH-SY5Y human neuroblastoma cells; experiment: Protection of SH-SY5Y neuroblastoma cells from Yankner peptide (b/A4), LDH content of remaining cells; format: cell-based; details: 20 μM Yankner peptide alone
# Description: A characteristic constituent of Alzheimer's Disease (AD) is the formation of plaques from the 39-43 amino acid long peptide derived from amyloid protein (Selkoe, D. TINS (1993) 16: 403-409). This molecule (b/A4) can be toxic to mammalian nerve cells. […] Yankner et al. (Science (1990) 250: 279-282) has developed this property in a culture method as an AD assay procedure.
# Differentiated cultures of SH-SY5Y Human neuroblastoma cells were grown to a stage where the cells formed a network of neurites. […] At day 3, after removal of the supernatant and the debris from dead cells by 3 washes with saline, the cells were then lysed and their LDH content was assayed for cell survival by measuring the LDH present in the remaining cells. The results were compared to LDH present in untreated controls, that were incubated for 3 days with no peptide additives (Table 7). The assay assumes that the LDH content of healthy cells remains constant and can be used as an index of living cells. The experiments using anoxia in our previous work were in agreement with this assumption.
# This experiment was performed in the method described above for Example 6, Experiment 1, except that the cells were incubated for 4 days instead of 3 to enhance the degenerative effect of the Yankner peptide. […]
# SHSY cells [3] = experiment: LDH levels in residual surviving SHSY cells after Yankner peptide; format: cell-based, human; details: Yankner peptide alone
# Description: In a tissue culture model for Alzheimer's disease, treatment with the Yankner peptide (amyloid fragment) causes cell death within 3 days. […] By studying the time course of cell death in this culture model for Alzheimer's disease, it was determined that about 60% of the cells die within 24 hrs. When the neuroprotective/neurorestorative peptide of the invention was added to the cells at the 24 hour time point (e.g., 24 hours after the cells were contacted with the Yankner peptide), over 40% of the injured neurons that were destined to die on day 3 were rescued.
# Aliquots of 3×10^5 SHSY cells were plated in each well of a 24-well microtiter plate in 1 ml of medium containing no peptides (control=Ctrl), 20 μM Yankner peptide (Yankner), 20 μM Yankner peptide+75 μM DQ peptide (SEQ ID NO:2) added at time of plating (Yankner+BTX Simultaneous), or 20 μM Yankner+75 μM BTX-639 added 24 hr post plating (Yankner+BTX 24 Hr Post). Plates were incubated at 37° C. in a 5% CO2 incubator for 3 days, then each well was washed twice with 1×PBS to remove loosely bound cells. Whole cell lysates were prepared from the remaining attached (viable) cells, and Lactate dehydrogenase (LDH) activity measured as described in methods. The results are illustrated in FIG. 2, in which each histobar represents the mean of 11 independent trials. Error bars denote one standard deviation. […]
# SHSY cells [4] = format: cell-based, human; details: 20 μM Yankner peptide alone
# Description: Aliquots of 3×10^5 SHSY cells were plated in each well of a 24-well microtiter plate in 1 ml of medium containing no peptides (Control=Ctrl), 20 μM Yankner peptide (Yankner), or 20 μM Yankner peptide+75 μM of DQ (SEQ ID NO:2) (Yankner+BTX). Plates were incubated at 37° C. in a 5% CO2 incubator for 3 days, then each well was washed twice with 1×PBS to remove loosely bound cells. The number of remaining cells per ml was determined by microscopy. […] Error bars denote one standard deviation. […] BTX was DQ (SEQ ID NO:2) in this experiment.
# [5] = system: primary rat cortical cultures; experiment: Oxygen-glucose deprivation (anoxia) of primary rat cortical cultures, LDH release into extracellular medium; format: cell-based
# Description: Peptides of the invention have been examined for neuroprotective activity in primary rat cortical cultures. […] It rescued 90-100% of the neurons that were exposed to a 3 hour oxygen-glucose deprivation (OGD).
# For the tests, primary mixed neuron-glia rat cortical cultures were grown to 80-95% confluence, as previously described (Shashoua, V. E. et al., Brain Res. (2004) 1024(1-2):34-43). Their neurons were grown over a layer of glia cells and formed a network of processes. Such cultures, after a 5× wash in oxygen-free (air displaced by argon) Hanks Balanced Salt Solution (HBSS) (Shashoua, V. E. et al., Brain Res. (2004) 1024(1-2):34-43) buffer, which contained no glucose, serum, and growth factors, were transferred for 3 hrs into the Form a Scientific Anaerobic Chamber (Thermo Forma, Marietta, Ohio) (Goldberg, M. P. and Choi, D. W. J Neurosci. (1993) 13(8):3510-3524) in an atmosphere of N2, CO2 and H2 (85%, 5%, and 10%). After exposure to oxygen-glucose deprivation (OGD) the neurons, retract their processes and generate vacuoles in their perikarya. […] Large increases (about 250%) in the release of lactic acid dehydrogenase (LDH, a marker of cell injury) into the extra-cellular medium occurred. For the test of glucose-oxygen deprivation on the release of lactic acid dehydrogenase as a function of time by primary rat cortical cultures, the LDH assay of extracellular fluid (1 ml aliquots) for cultures from cells were incubated for 24 hours under normoxia conditions and were compared with cells exposed up to 4 hours of anoxia in HBSS medium followed by normoxia medium for a total period of 24 hours. LDH was measured as absorbance at 490 nm, n=6 per time point (Shashoua, V. E. et al., Brain Res. (2004) 1024(1-2):34-43) (see Table 2). Assays and detection were performed according to manufacturer's instructions using a Promega Cyto Tox 96, a nonradioactive cytotoxicity assay kit (Promega, Madison, Wis.).
# For these experiments there were n=6 per assay, and a 3 hour treatment of anoxia was followed by 21 hours of normoxia reperfusion. SEQ ID NO:1 was added at 1 hour post initiation of anoxia and was also present during the 21 hours of reperfusion. […] The results for SEQ ID NO:1 as well as the results for SEQ ID NOs:3 and 4, which are shown in Tables 3 and 4 give results of LDH assay that was done on supernatant of extracellular medium.
# [6] = 300 μM MPP+ + 14 μM peptide, n = 8
molecule,measurement,setting,value
"C[n+]1ccc(-c2ccccc2)cc1 [MPP+, 1-methyl-4-phenylpyridinium, reference compound]",% Rescue after Treatment for 0 hours,N27 dopaminergic cells; 300 μM MPP+ alone,100 ± 2%
same,% Rescue after Treatment for 24 hours,N27 dopaminergic cells; 300 μM MPP+ alone,0 ± 3%
same,% Rescue after Treatment for 48 hours,N27 dopaminergic cells; 300 μM MPP+ alone,0 ± 4%
"CN1CC=C(c2ccccc2)CC1 [MPTP, 1-methyl-4-phenyl-1,2,3,6 tetrahydropyridine, reference compound]",neurons that survive,"[1]; 4 days following an IP injection 30 mg/Kg of MPTP, no peptide",12.5%
CC[C@H](C)[C@H](NC(=O)[C@H](C)NC(=O)CNC(=O)[C@H](CCCCN)NC(=O)[C@H](CC(N)=O)NC(=O)[C@H](CO)NC(=O)CN)C(=O)N[C@H](C(=O)NCC(=O)N[C@@H](CC(C)C)C(=O)N[C@@H](CCSC)C(=O)O)[C@@H](C)CC [Yankner peptide] (H-GSNKGAIIGLM-OH),OD 490 nm,[2]; 3 days,0.568 OD 490 nm
same,OD 490 nm,[2]; 4 days,0.127 OD 490 nm
same,cells that die within 24 hrs,SHSY cells [3],about 60%
same,cell death,SHSY cells [4],50%
CC(C)[C@H](NC(=O)[C@H](CCC(=O)O)NC(=O)CCCCC1CCSS1)C(=O)N[C@@H](CC(=O)O)C(=O)N[C@@H](CC(=O)O)C(=O)N[C@@H](CC(=O)O)C(=O)N[C@@H](CCC(N)=O)C(=O)O (stereo partly drawn) [[Lip]-EVDDDQ] ({Lipoyl(6ξ)}-EVDDDQ-OH; C-terminus assumed),passage through the Blood-Brain Barrier (in words),[1]; concluded from the in vivo effect,can get through the Blood-Brain Barrier
EVDDDQ [SEQ ID NO: 1],% Rescue after Treatment for 24 hours,"N27 dopaminergic cells; 300 μM MPP+ + 14 μM (10 μg/ml) peptide, n = 8",82 ± 2%
same,% Rescue after Treatment for 24 hours,"N27 dopaminergic cells; 300 μM MPP+ + 14 μM (10 μg/ml) peptide, n = 8, listed as SEQ ID NO:1",82%
same,% Rescue after Treatment for 0 hours,N27 dopaminergic cells; [6],100 ± 2%
same,% Rescue after Treatment for 48 hours,N27 dopaminergic cells; [6],56 ± 4%
same,reversal of the effects of anoxia / neuroprotection from anoxia (in words),[5],active in reversing the effects of anoxia
same,"effects of anoxia, cell morphology and LDH release (in words)","[5]; 1 ng/ml up to 10 ng/ml in the media, even after the 3 hr OGD treatment, 21 hours normoxia reperfusion",all the effects of anoxia were reversed and cell morphology and LDH release returned to normal
same,LDH (A 490 nm),"[5]; Table 3, anoxia + 1 ng/ml",0.33 ± .02 A 490 nm
same,LDH Released % of Normoxia,"[5]; Table 3, anoxia + 1 ng/ml",100 % of Normoxia
same,LDH (A 490 nm),"[5]; Table 3, anoxia + 10 ng/ml",0.22 ± .03 A 490 nm
same,LDH Released % of Normoxia,"[5]; Table 3, anoxia + 10 ng/ml",68 % of Normoxia
same,LDH (A 490 nm),"[5]; Table 3, anoxia + 100 ng/ml",0.161 ± .04 A 490 nm
same,LDH Released % of Normoxia,"[5]; Table 3, anoxia + 100 ng/ml",50 % of Normoxia
same,LDH release compared with normoxia controls (in words),[5]; high doses,decreased LDH release to lower amounts than those present in normoxia controls
same,neurons rescued,[5]; neurons exposed to a 3 hour oxygen-glucose deprivation (OGD),90-100%
QDDDVE,reversal of the effects of anoxia / neuroprotection from anoxia (in words),[5],reverse effects of anoxia
VFTPPS,reversal of the effects of anoxia / neuroprotection from anoxia (in words),[5],reverse effects of anoxia
[Ac]-QDDDVE (Ac-QDDDVE),% Rescue per Treatment time 0 hours,N27 dopaminergic cells; 42 μM peptide + 300 μM MPP+,100 ± 2%
same,% Rescue per Treatment time 24 hours,N27 dopaminergic cells; 42 μM peptide + 300 μM MPP+,42 ± 4%
same,% Rescue per Treatment time 48 hours,N27 dopaminergic cells; 42 μM peptide + 300 μM MPP+,27 ± 3%
same,LDH (A 490 nm),"[5]; Table 4, anoxia + 1 ng/ml",0.33 ± 0.02 A 490 nm
same,LDH Released % of Normoxia,"[5]; Table 4, anoxia + 1 ng/ml",100 ± 6 % of Normoxia
same,LDH (A 490 nm),"[5]; Table 4, anoxia + 10 ng/ml",0.22 ± 0.04 A 490 nm
same,LDH Released % of Normoxia,"[5]; Table 4, anoxia + 10 ng/ml",67 ± 12 % of Normoxia
same,LDH (A 490 nm),"[5]; Table 4, anoxia + 100 ng/ml",0.16 ± 0.05 A 490 nm
same,LDH Released % of Normoxia,"[5]; Table 4, anoxia + 100 ng/ml",48 ± 15 % of Normoxia
[Lip]-VFTPPS (Lip-VFTPPS) [VFTPPS conjugated to lipoic acid at the N-terminal amino acid],reversal of the effects of anoxia / neuroprotection from anoxia (in words),[5],promote neuroprotection from anoxia
same,LDH (A 490 nm),"[5]; Table 4, anoxia + 10 ng/ml",0.56 ± 0.08 A 490 nm
same,LDH Released % of Normoxia,"[5]; Table 4, anoxia + 10 ng/ml",169 ± 24 % of Normoxia
same,LDH (A 490 nm),"[5]; Table 4, anoxia + 100 ng/ml",0.37 ± 0.04 A 490 nm
same,LDH Released % of Normoxia,"[5]; Table 4, anoxia + 100 ng/ml",112 ± 12 % of Normoxia
